Assay results reported in patent US9314485B2, “Use of PI3K M-TOR and AKT inhibitors to induce FOXP3 expression and generate regulatory T cells” (Medical Research Council, priority 2006, dated 2016).
Entries after “also recorded” stand apart in the source; their conditions may differ.

What was measured:
Format in all cases: cell-based, mouse
Akt = assay: pAkt (S473) immunoblot in activated CD4 T cells; conditions: 18 h activated T cells
Protocol: To monitor the activity of the PI3K/mTOR axis in newly activated CD4 T cells we analysed phosphorylation of S6 ribosomal protein (pS6), a target of the mTOR-regulated p70 S6 kinase S6K1. TCR/CD28 signaling (but not anti-CD28 alone) induced high levels of pS6 (FIG. 10a). The maintenance of mTOR activity in 18 hour activated T cells required continued TCR signaling, since S6 phosphorylation declined when TCR signals were withdrawn (FIG. 10b). […] The serine/threonine protein kinase Akt/PKB is rapidly phosphorylated in response to signaling through TCR/CD28 but, in contrast to pS6, pAkt (S473) was no longer detected 18 h after initiation of TCR/CD28 signaling (FIG. 10c). […] Increased Akt phosphorylation in response to TCR signal deprivation and rapamycin treatment is incompatible with a traditional linear signaling pathway (FIG. 10d) but consistent with a network model in which Akt activity is controlled both by PDK1 and by mTORC2. In this model, mTORC2 (mTOR/rictor/Sin 1) is under negative feedback control of mTORC1 (mTOR/raptor) via S6K1, which phosphorylates and inhibits IRS1 (insulin receptor substrate 1) and reduces Akt activation via PI3K, PDK1 and mTORC2 (FIG. 10e). Applied to our data, withdrawal of TCR signaling lowers mTORC1 and S6K1 activity (FIG. 10b), which reduces feedback inhibition of mTORC2 and explains the observed increase in pAkt (S473) (FIG. 10c). […]

Smad2 = Smad2 phosphorylation western blot; conditions: serum free medium, TGFβ 1 ng/ml 90 minutes, inhibitors 90 minutes or 8 hours
Source text: TGFβ is known as a powerful inducer of Foxp3 expression in conventional CD4 T cells in vitro and we therefore asked whether TGFβ mediates the induction of Foxp3 by TCR signal deprivation of newly activated T cells and PI3-K/mTOR inhibitors. Since cell culture medium supplemented with FCS contains TGFβ, we carried out the experiments described in this section in serum free lymphocyte culture medium (AIM-V, Invitrogen). […] The binding of TGFβ binding to ALK5 and TGFβ receptor II (TGFβRII) results in the phosphorylation of receptor-associated Smad2 and -3, which subsequently associate with co-Smads, translocate to the nucleus and act as transcriptional regulators. The phosphorylation of Smad proteins therefore provides a sensitive indicator of TGFβ signaling. Naive LN T cells were activated for 18 hours in serum free medium and then exposed to TGFβ (1 ng/ml) […], TCR signal deprivation, or TCR signal deprivation plus rapamycin and Ly294002. […] The blot was subsequently probed with anti Smad2/3 as a loading control.

S6 ribosomal protein = S6 ribosomal protein phosphorylation (pS6) by intracellular staining/immunoblot; conditions: 18 h activated cells; rapamycin 25 nM, Ly294002 10 g/ml as printed; within one hour
Protocol: Mouse strains, cell sorting and culture Animal work was carried out according the Animals (Scientific Procedures) Act, UK. Lymph node (LN) cells were stained, analysed and sorted by flow cytometry as described (Cobb et al 2005 J. Exp. Med. 201: 1367-1373). Intracellular staining for Foxp3 protein was done as advised by the manufacturers (eBiosciences.com). The phosphorylation syatus of S6 ribosomal protein was determined using anti pS6 Ser235/236 (Cellsignaling cat.no. 2211, http://www.cellsignal.com) using the eBioscience Foxp3 staining kit and anti rabbit IgG-FITC or IgG-Cy5 (Jackson Immunoresearch). […] CD4 T cell CFSE profiles were recorded between 48 and 72 hours later.
To monitor the activity of the PI3K/mTOR axis in response to TCR signaling, TCR signal withdrawal and treatment with rapamycin and Ly294002, we analysed the level of phosphorylated S6 ribosomal protein (pS6), the target of p70 S6 kinase, which is directly regulated by mTOR. […]
Mice, Cell Sorting and Culture. […] Lymph node (LN) cells or thymocytes from wild type were stained, analysed and sorted by flow cytometry as described (Thompson et al., 2007 Immunity VoI 26 pp 335-344) from wild type (C57BL/6, BALB/c or C57BL/6×129) mice or from Rag1 deficient H2^b AND TCR transgenic mice. […] CD4 T cell CFSE profiles were recorded between 48 and 72 hours later.

TGFβ
pAkt (S473) (Akt): reappeared; also recorded: increased pAkt S473
phosphorylation of Smad2 (pSmad2 S465/467) (Smad2): readily detectable
phosphorylation of Smad2 (pSmad2 S465/467) (Smad2; listed as TGF): strong phosphorylation of Smad2
S6 phosphorylation (pS6) (S6 ribosomal protein): reduced pS6
